ChEMBL document CHEMBL3045984, “Resistance to HPPD-inhibiting herbicides in a population of waterhemp (Amaranthus tuberculatus) from Illinois, United States” (2011)

Legend:
Assay type in all cases: functional
[1] = tested on: Amaranthus tuberculatus; test: Herbicidal activity against Amaranthus tuberculatus biotype WCS assessed as visual injury at 18 g/ha applied as spray after 7 days under green house conditions relative to untreated control
[2] = tested on: Amaranthus tuberculatus; test: Herbicidal activity against Amaranthus tuberculatus biotype MCR 15 assessed as visual injury at 18 g/ha applied as spray after 21 days under green house conditions relative to untreated control
[3] = tested on: Amaranthus tuberculatus; test: Herbicidal activity against Amaranthus tuberculatus biotype ACR assessed as visual injury at 18 g/ha applied as spray after 7 days under green house conditions relative to untreated control
[4] = tested on: Amaranthus tuberculatus; test: Herbicidal activity against Amaranthus tuberculatus biotype MCR 16 assessed as visual injury at 18 g/ha applied as spray after 7 days under green house conditions relative to untreated control
[5] = tested on: Amaranthus tuberculatus; test: Herbicidal activity against Amaranthus tuberculatus biotype MCR 16 assessed as visual injury at 18 g/ha applied as spray after 14 days under green house conditions relative to untreated control
[6] = tested on: Amaranthus tuberculatus; test: Herbicidal activity against Amaranthus tuberculatus biotype WCS assessed as visual injury at 18 g/ha applied as spray after 21 days under green house conditions relative to untreated control
[7] = tested on: Amaranthus tuberculatus; test: Herbicidal activity against Amaranthus tuberculatus biotype ACR assessed as visual injury at 18 g/ha applied as spray after 21 days under green house conditions relative to untreated control
[8] = tested on: Amaranthus tuberculatus; test: Herbicidal activity against Amaranthus tuberculatus biotype MCR 12 assessed as visual injury at 18 g/ha applied as spray after 7 days under green house conditions relative to untreated control
[9] = tested on: Amaranthus tuberculatus; test: Herbicidal activity against Amaranthus tuberculatus biotype MCR 16 assessed as visual injury at 18 g/ha applied as spray after 21 days under green house conditions relative to untreated control
[10] = tested on: Amaranthus tuberculatus; test: Herbicidal activity against Amaranthus tuberculatus biotype MCR 15 assessed as visual injury at 18 g/ha applied as spray after 7 days under green house conditions relative to untreated control
[11] = tested on: Amaranthus tuberculatus; test: Herbicidal activity against Amaranthus tuberculatus biotype WCS assessed as visual injury at 18 g/ha applied as spray after 14 days under green house conditions relative to untreated control
[12] = tested on: Amaranthus tuberculatus; test: Herbicidal activity against Amaranthus tuberculatus biotype ACR assessed as visual injury at 18 g/ha applied as spray after 14 days under green house conditions relative to untreated control
[13] = tested on: Amaranthus tuberculatus; test: Herbicidal activity against Amaranthus tuberculatus biotype MCR 12 assessed as visual injury at 18 g/ha applied as spray after 14 days under green house conditions relative to untreated control
[14] = tested on: Amaranthus tuberculatus; test: Herbicidal activity against Amaranthus tuberculatus biotype MCR 12 assessed as visual injury at 18 g/ha applied as spray after 21 days under green house conditions relative to untreated control
[15] = tested on: Amaranthus tuberculatus; test: Herbicidal activity against Amaranthus tuberculatus biotype MCR 15 assessed as visual injury at 18 g/ha applied as spray after 14 days under green house conditions relative to untreated control
[16] = tested on: Amaranthus tuberculatus; test: Herbicidal activity against Amaranthus tuberculatus biotype MCR 15 assessed as visual injury at 92 g/ha applied as spray after 21 days under green house conditions relative to untreated control
[17] = tested on: Amaranthus tuberculatus; test: Herbicidal activity against Amaranthus tuberculatus biotype WCS assessed as visual injury at 92 g/ha applied as spray after 14 days under green house conditions relative to untreated control
[18] = tested on: Amaranthus tuberculatus; test: Herbicidal activity against Amaranthus tuberculatus biotype MCR 15 assessed as visual injury at 92 g/ha applied as spray after 14 days under green house conditions relative to untreated control
[19] = tested on: Amaranthus tuberculatus; test: Herbicidal activity against Amaranthus tuberculatus biotype ACR assessed as visual injury at 92 g/ha applied as spray after 7 days under green house conditions relative to untreated control
[20] = tested on: Amaranthus tuberculatus; test: Herbicidal activity against Amaranthus tuberculatus biotype MCR 16 assessed as visual injury at 92 g/ha applied as spray after 7 days under green house conditions relative to untreated control
[21] = tested on: Amaranthus tuberculatus; test: Herbicidal activity against Amaranthus tuberculatus biotype WCS assessed as visual injury at 92 g/ha applied as spray after 21 days under green house conditions relative to untreated control
[22] = tested on: Amaranthus tuberculatus; test: Herbicidal activity against Amaranthus tuberculatus biotype MCR 16 assessed as visual injury at 92 g/ha applied as spray after 21 days under green house conditions relative to untreated control
[23] = tested on: Amaranthus tuberculatus; test: Herbicidal activity against Amaranthus tuberculatus biotype MCR 12 assessed as visual injury at 92 g/ha applied as spray after 21 days under green house conditions relative to untreated control
[24] = tested on: Amaranthus tuberculatus; test: Herbicidal activity against Amaranthus tuberculatus biotype ACR assessed as visual injury at 92 g/ha applied as spray after 21 days under green house conditions relative to untreated control
[25] = tested on: Amaranthus tuberculatus; test: Herbicidal activity against Amaranthus tuberculatus biotype MCR 15 assessed as visual injury at 92 g/ha applied as spray after 7 days under green house conditions relative to untreated control
[26] = tested on: Amaranthus tuberculatus; test: Herbicidal activity against Amaranthus tuberculatus biotype MCR 16 assessed as visual injury at 92 g/ha applied as spray after 14 days under green house conditions relative to untreated control
[27] = tested on: Amaranthus tuberculatus; test: Herbicidal activity against Amaranthus tuberculatus biotype MCR 12 assessed as visual injury at 92 g/ha applied as spray after 7 days under green house conditions relative to untreated control
[28] = tested on: Amaranthus tuberculatus; test: Herbicidal activity against Amaranthus tuberculatus biotype ACR assessed as visual injury at 92 g/ha applied as spray after 14 days under green house conditions relative to untreated control
[29] = tested on: Amaranthus tuberculatus; test: Herbicidal activity against Amaranthus tuberculatus biotype MCR 12 assessed as visual injury at 92 g/ha applied as spray after 14 days under green house conditions relative to untreated control
[30] = tested on: Amaranthus tuberculatus; test: Herbicidal activity against Amaranthus tuberculatus biotype WCS assessed as visual injury at 92 g/ha applied as spray after 7 days under green house conditions relative to untreated control

Compound: Cc1c(C(=O)c2cnn(C)c2O)ccc(S(C)(=O)=O)c1C1=NOCC1 [TOPRAMEZONE]
- Activity [1]: 84%
- Activity [2]: 42%
- Activity [3]: 69%
- Activity [4]: 54%
- Activity [5]: 64%
- Activity [6]: 100%
- Activity [7]: 96%
- Activity [8]: 41%
- Activity [9]: 58%
- Activity [10]: 52%
- Activity [11]: 96%
- Activity [12]: 93%
- Activity [13]: 42%
- Activity [14]: 36%
- Activity [15]: 59%

Compound: CS(=O)(=O)c1ccc(C(=O)C2C(=O)CCCC2=O)c(Cl)c1COCC(F)(F)F [TEMBOTRIONE]
- Activity [16]: 35%
- Activity [17]: 96%
- Activity [18]: 34%
- Activity [19]: 56%
- Activity [20]: 43%
- Activity [21]: 100%
- Activity [22]: 31%
- Activity [23]: 17%
- Activity [24]: 94%
- Activity [25]: 48%
- Activity [26]: 46%
- Activity [27]: 40%
- Activity [28]: 91%
- Activity [29]: 30%
- Activity [30]: 84%
